Results on nine compounds are retold here after BindingDB's records for PubMed 34146913 (National Institute of Pharmaceutical Education and Research …, 2021).

Experiment [1] is described as follows: Inhibition of DC-SIGN extracellular domain (unknown origin) expressed in Escherichia coli DE3(BL21) incubated for 1 hrs in presence of Man-Fl-BSA by high-throughput fluorescence-based assay.
Experiment [2] is described as follows: Inhibition of DC-SIGN extracellular domain (unknown origin) by SPR analysis.

Regarding `CCC(=O)Nc1nc(C)c(-c2csc(Nc3ccc(N(C)C)cc3)n2)s1`, in experiment [1], the 50% inhibitory concentration (IC50) was 1.6 µM.

For `O=C1Nc2cc(C(=O)N3CCN(c4ccccc4)CC3)ccc2NC1CSCc1c(F)cccc1Cl` (centres undefined), in experiment [1], the IC50 turned out to be 7.3 µM.

For `Cc1ccc(N(C)S(=O)(=O)c2ccc3[nH]cc(C(=O)N4CCN(c5ccccc5)CC4)c(=O)c3c2)cc1C`, the IC50 in experiment [1] came to 6.1 µM.

Consider `COC(=O)c1ccc(-c2ccc(/C=C3\C(=O)N(c4ccc(S(N)(=O)=O)cc4)N=C3C(F)(F)F)o2)cc1`, for which, in experiment [1], the IC50 came to 32 µM.

Consider `CN1CCN(c2ccc(/C=C3\Sc4ccccc4C3=O)cc2[N+](=O)[O-])CC1`, for which, in experiment [1], the IC50 came out at 10 µM.

Turning to `COc1ccccc1N1CCN(C(=O)c2ccc3c(c2)NC(=O)C(CCCc2ccccc2C)N3)CC1` (centres undefined), in experiment [1], the IC50 was determined as 4.4 µM.

Regarding `NOC(=O)c1ccc(CCCC2Nc3ccc(C(=O)N4CCN(c5ncccn5)CC4)cc3NC2=O)cc1` (centres undefined), the IC50 in experiment [1] was found to be 2.6 µM.

Regarding `N=c1c(C(=O)NCCc2cn3c(n2)SCC3)cnc2sccn12`, in experiment [2], the Kd amounted to 400 µM.

Compound `O=C(NCCc1c[nH]c2ccccc12)c1c(O)nc2sccn2c1=O` returned a Kd in experiment [2] of 180 µM.
